According to ChEMBL document CHEMBL1147957, “Synthesis and antitubercular activity of phenothiazines with reduced binding to dopamine and serotonin receptors” (2007):
In brackets after ≈: the same amount, converted by molar mass. Several values for one entry are separate records, joined by “and”; a condition that tells them apart may be missing. Identical values can stand only once.

Key:
[1] = system: Mycobacterium tuberculosis; assay: Antitubercular activity against Mycobacterium tuberculosis H37Rv by MABA assay; assay type: functional
[2] = molecular target: T1, 5-hydroxytryptamine receptor 2C (Homo sapiens) (UniProt P28335); assay: Displacement of [3H]mesulergine from 5HT2C receptor at 10 uM
T1 sequence (whole entry): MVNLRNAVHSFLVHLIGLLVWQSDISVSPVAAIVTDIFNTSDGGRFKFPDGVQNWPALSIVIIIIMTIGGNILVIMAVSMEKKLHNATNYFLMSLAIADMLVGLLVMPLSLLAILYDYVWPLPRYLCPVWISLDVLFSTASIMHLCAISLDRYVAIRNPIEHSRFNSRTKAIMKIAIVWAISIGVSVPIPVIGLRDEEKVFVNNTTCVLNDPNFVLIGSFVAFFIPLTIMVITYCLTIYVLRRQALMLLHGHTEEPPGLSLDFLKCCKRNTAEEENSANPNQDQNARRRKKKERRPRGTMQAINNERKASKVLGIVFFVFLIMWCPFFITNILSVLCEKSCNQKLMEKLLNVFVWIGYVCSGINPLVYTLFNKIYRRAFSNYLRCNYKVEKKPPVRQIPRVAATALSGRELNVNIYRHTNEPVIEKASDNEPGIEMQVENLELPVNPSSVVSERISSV

[3] = molecular target: T2, 5-hydroxytryptamine receptor 1A (Homo sapiens) (UniProt P08908); assay: Displacement of [3H]8-OH-DPAT from 5HT1A receptor at 10 uM
T2 sequence (whole entry): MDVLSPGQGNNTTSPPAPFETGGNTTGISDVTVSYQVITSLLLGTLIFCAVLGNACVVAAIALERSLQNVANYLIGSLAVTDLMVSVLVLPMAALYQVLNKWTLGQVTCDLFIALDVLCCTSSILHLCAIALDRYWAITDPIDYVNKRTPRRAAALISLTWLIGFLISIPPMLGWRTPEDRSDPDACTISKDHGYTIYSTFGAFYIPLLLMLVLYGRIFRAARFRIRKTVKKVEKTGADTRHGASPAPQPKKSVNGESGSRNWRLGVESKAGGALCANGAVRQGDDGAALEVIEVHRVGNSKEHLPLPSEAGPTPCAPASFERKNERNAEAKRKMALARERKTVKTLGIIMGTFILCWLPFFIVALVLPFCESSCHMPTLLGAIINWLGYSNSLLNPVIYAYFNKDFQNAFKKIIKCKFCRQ

[4] = molecular target: D(2) dopamine receptor (Homo sapiens) (UniProt P14416); assay: Displacement of [3H]YM091512 from dopamine D2 receptor at 10 uM
D(2) dopamine receptor (Homo sapiens), sequence (P14416 whole entry): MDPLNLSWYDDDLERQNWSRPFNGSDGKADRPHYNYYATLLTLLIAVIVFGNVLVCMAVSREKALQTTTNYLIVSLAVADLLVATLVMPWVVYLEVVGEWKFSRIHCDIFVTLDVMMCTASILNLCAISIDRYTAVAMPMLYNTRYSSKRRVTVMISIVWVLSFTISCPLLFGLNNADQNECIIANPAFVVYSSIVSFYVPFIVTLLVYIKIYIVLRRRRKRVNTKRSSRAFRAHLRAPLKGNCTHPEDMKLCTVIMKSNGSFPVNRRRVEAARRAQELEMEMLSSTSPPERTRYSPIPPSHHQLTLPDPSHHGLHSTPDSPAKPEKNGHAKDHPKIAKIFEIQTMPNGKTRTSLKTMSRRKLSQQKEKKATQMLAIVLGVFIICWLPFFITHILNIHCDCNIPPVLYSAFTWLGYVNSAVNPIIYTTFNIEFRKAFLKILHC

| SMILES | MIC [1] [µg/mL] | Activity [2] | Activity [3] | Activity [4] |
| --- | --- | --- | --- | --- |
| CN1CCCC(CN2c3ccccc3Sc3cnccc32)C1 (stereo not drawn) | > 20 | – | – | – |
| CC(CO)NCc1ccc(CN2c3ccccc3Sc3ccc(C(F)(F)F)cc32)cc1 (stereo not drawn) | 6.4 (≈ 14.4 µM) | 59% | 24% | 93% |
| COc1ccc2c(c1)Sc1ccccc1N2CC1CCCN(C)C1 (stereo not drawn) | > 20 | 41% | 0% | 75% |
| OC1CCN(CCCN2c3ccccc3Sc3ccc(C(F)(F)F)cc32)C1 (stereo not drawn) | 11 (≈ 27.9 µM) | 95% | 62% | 74% |
| OC1CCN(Cc2ccc(CN3c4ccccc4Sc4ccc(C(F)(F)F)cc43)cc2)C1 (stereo not drawn) | 8.4 (≈ 18.4 µM) | 65% | 0% | 79% |
| CN1CCCC(CN2c3ccccc3Sc3ccc(-c4ccccc4)cc32)C1 (stereo not drawn) | 4.5 (≈ 11.6 µM) | 14% | 1% | 97% |
| FC(F)(F)c1ccc2c(c1)N(CCCNCc1ccccc1)c1ccccc1S2 | 4.2 (≈ 10.1 µM) | 85% | 61% | 97% |
| CN1CCN(CCCN2c3ccccc3Sc3ccc(C(F)(F)F)cc32)CC1 | – | 91% and 97% | 76% and 67% | 100% and 98% |
| CN1CCN(CCCN2c3ccccc3Sc3ccc(C(F)(F)F)cc32)CC1.Cl | 6 | – | – | – |
| CN1CCCC(CN2c3ccccc3Sc3cc(N4CCOCC4)ccc32)C1 (stereo not drawn) | > 2 | 7% | 0% | 59% |
| FC(F)(F)c1ccc2c(c1)N(Cc1ccc(CNCc3ccccc3)cc1)c1ccccc1S2 | > 20 | 0% | 0% | 13% |
| CC1CN(CCCN2c3ccccc3Sc3ccc(C(F)(F)F)cc32)CC(C)O1 (stereo not drawn) | > 20 | 30% | 98% | 99% |
| FC(F)(F)c1ccc2c(c1)N(CCCNc1nccs1)c1ccccc1S2 | 14 (≈ 34.4 µM) | 81% | 54% | 95% |
| Cc1ccc2c(c1)Sc1ccccc1N2CC1CCCN(C)C1 (stereo not drawn) | 7.2 (≈ 22.2 µM) | 26% | 0% | 93% |
| CN1CCCC(CN2c3ccccc3Sc3cc(Cl)ccc32)C1 (stereo not drawn) | 14.3 (≈ 41.5 µM) | 67% | 0% | 94% |
| FC(F)(F)c1ccc2c(c1)N(CCCN1c3ccccc3Sc3ccc(C(F)(F)F)cc31)c1ccccc1S2 | 2.3 (≈ 4 µM) | 83% | 67% | 48% |
| FC(F)(F)c1ccc2c(c1)N(CCCNc1ccccn1)c1ccccc1S2 | 20 (≈ 49.8 µM) | 93% | 45% | 85% |
| CN1CCCC(CN2c3ccccc3Sc3cc(-c4ccccc4)ccc32)C1 (stereo not drawn) | 2.1 (≈ 5.43 µM) | 58% | 0% | 96% |
| FC(F)(F)c1ccc2c(c1)N(Cc1ccc(CN3CCN(c4ncccn4)CC3)cc1)c1ccccc1S2 | > 20 | 0% | 10% | 72% |
| CN1CCCC(CN2c3ccccc3Sc3cc(F)ccc32)C1 (stereo not drawn) | 10.8 (≈ 32.9 µM) | 89% | 7% | 87% |
